Results from patent US20240165281A1, “DUAL MODE RADIOTRACER AND THERAPEUTICS” (Technische Universität München, priority 2021, published 2024).

Assays:
[1] = biological target: T1, Human Serum Albumin (HSA) (Homo sapiens, UniProt P02768); experiment: Human serum albumin (HSA) binding by high performance affinity chromatography (HPAC); format: in vitro ADME; conditions: Chiralpak HSA column
T1 construct: purchased Daicel H13H-2433
Method: Determination of Human Serum Albumin (HSA) Binding by High Performance Affinity Chromatography (HPAC)
HSA binding of the PSMA-addressing ligands was determined according to a previously published procedure via HPLC (Valko, K.; Nunhuck, S.; Bevan, C.; Abraham, M. H.; Reynolds, D. P. Journal of pharmaceutical sciences 2003, 92, 2236-2248). A Chiralpak HSA column (50×3 mm, 5 μm, H13H-2433, Daicel, Tokyo, Japan) was used at a constant flow rate of 0.5 mL/min at rt. Mobile phase A was a freshly prepared 50 mM aqueous solution of NH4OAc (pH 6.9) and mobile phase B was isopropanol (HPLC grade, VWR). The applied gradient for all experiments was 100% A (0 to 3 min), followed by 80% A (3 to 40 min). Prior to the experiment, the column was calibrated using nine reference substances with a HSA binding, known from literature, in the range of 13 to 99% (Valko, K.; Nunhuck, S.; Bevan, C.; Abraham, M. H.; Reynolds, D. P. Journal of pharmaceutical sciences 2003, 92, 2236-2248; Yamazaki, K.; Kanaoka, M. Journal of Pharmaceutical sciences 2004, 93, 1480-1494). All substances, including the examined PSMA ligands, were dissolved in a 1:1 mixture (v/v) of isopropanol and a 50 mM aqueous solution of NH4OAc (pH6.9) with a final concentration of 0.5 mg/mL. Non-linear regression was established with the OriginPro 2016G software (Northampton, United States) (FIG. 8).

LNCaP cells = experiment: Internalization studies in LNCaP cells; format: cell-based; conditions: 37° C., 60 min
Method: PSMA-positive LNCAP cells (300265; Cell Lines Service, Eppelheim, Germany) were cultivated in Dulbecco modified Eagle medium/Nutrition Mixture F-12 with Glutamax (1:1) (DMEM-F12, Biochrom, Berlin, Germany) supplemented with fetal bovine serum (10%, FBS Zellkultur, Berlin, Germany) and kept at 37° C. in a humidified CO2 atmosphere (5%). A mixture of trypsin and EDTA (0.05%, 0.02%) in PBS (Biochrom) was used in order to harvest cells. Cells were counted with a Neubauer hemocytometer (Paul Marienfeld, Lauda-Königshofen, Germany).
For internalization studies, LNCaP cells were harvested 24±2 hours before the experiment and seeded in poly-L-lysine coated 24-well plates (1.25×10^5 cells in 1 mL/well, Greiner Bio-One, Kremsmünster, Austria). After removal of the culture medium, the cells were washed once with 500 μL DMEM-F12 (5% BSA) and left to equilibrate for at least 15 min at 37° C. in […] DMEM-F12 (5% BSA). Each well was treated with either 25 μL of either DMEM-F12 (5% BSA, control) or 25 μL of a 100 μM PMPA (2-(Phosphonomethyl)-pentandioic acid, Tocris Bioscience, Bristol, UK) solution in PBS, for blockade. Next, 25 μL of the radioactive-labelled PSMA inhibitor (10.0 nM in DMEM-F12 (5% BSA)) was added and the cells were incubated at 37° C. for 60 min. The experiment was terminated by placing the 24-well plate on ice for 3 min and consecutive removal of the medium. Each well was carefully washed with 250 μL of ice-cold HBSS. Both fractions from the first steps, representing the amount of free radioligand, were combined. Removal of surface bound activity was accomplished by incubation of the cells with 250 μL of ice-cold PMPA (10 μM in PBS) solution for 5 min and rinsed again with another 250 μL of ice-cold PBS. The internalized activity was determined by incubation of the cells in 250 μL […] aqueous NaOH for at least 10 min. The obtained fractions were combined with those of the subsequent wash step with 250 μL 1 M aqueous NaOH. Each experiment (control and blockade) was performed in triplicate. Free, surface bound and internalized activity was quantified in a y-counter. All internalization studies were accompanied by external reference studies, using ([^125I]I-BA)KuE (c=0.2 nM), which were performed analogously. Data were corrected for non-specific binding and normalized to the specific-internalization observed for the radioiodinated reference compound.

T1 sequence (P02768 25-609): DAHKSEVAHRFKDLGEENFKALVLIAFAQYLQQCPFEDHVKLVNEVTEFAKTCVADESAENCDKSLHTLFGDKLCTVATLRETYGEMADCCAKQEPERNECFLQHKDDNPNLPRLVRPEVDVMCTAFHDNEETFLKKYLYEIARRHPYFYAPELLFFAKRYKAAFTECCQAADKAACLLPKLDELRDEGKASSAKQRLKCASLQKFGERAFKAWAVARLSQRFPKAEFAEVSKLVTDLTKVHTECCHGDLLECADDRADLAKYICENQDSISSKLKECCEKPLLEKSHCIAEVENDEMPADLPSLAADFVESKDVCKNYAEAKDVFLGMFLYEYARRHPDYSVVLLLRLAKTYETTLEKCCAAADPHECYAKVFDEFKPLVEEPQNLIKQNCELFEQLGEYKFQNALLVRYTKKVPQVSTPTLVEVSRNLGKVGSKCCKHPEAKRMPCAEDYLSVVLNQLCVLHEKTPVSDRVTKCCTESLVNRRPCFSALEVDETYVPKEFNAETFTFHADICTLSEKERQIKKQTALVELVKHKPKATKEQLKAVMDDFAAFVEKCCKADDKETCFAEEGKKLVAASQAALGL

**Q.** For CC(C)(C)[Si](F)(c1ccc(C(=O)NC[C@@H](NC(=O)CN2CCN(CC(=O)O)CCN(CC(=O)O)CCN(CC(=O)O)CC2)C(=O)N[C@H](CO)C(=O)NCCC(=O)NCCC(=O)NCCC[C@@H](NC(=O)CC[C@H](NC(=O)N[C@@H](CCC(=O)O)C(=O)O)C(=O)O)C(=O)O)cc1)C(C)(C)C [Compound 2C013], which “HSA (HPAC)” value [1] is on record?
**A.** Its value is 88.6%.

**Q.** What about the Internalization (LNCaP cells; normalized to ([125I]I-BA)KuE) of the same compound?
**A.** The Internalization was 141 ± 8^ % IBA-KuE.

**Q.** What about the Internalization (LNCaP cells; normalized to reference) of the same compound?
**A.** The Internalization was 141 ± 8 % IBA.
